Test results published in patent publication US20140128352A1, “COMPOUNDS AND METHODS FOR MODULATING MITOCHONDRIAL METABOLISM AND REACTIVE OXYGEN SPECIES PRODUCTION” (Buck Institute for Research on Aging, priority 2012, published 2014).
Like-named read-outs stand apart in the source and are kept apart here.

What was measured:
[1] = tested on: mitochondrial membrane potential (ΔΨm); assay: Membrane potential (ΔΨm) counterscreen with TMRM; conditions: malate, nigericin
[2] = target: T1, flavin binding site of complex I (IF) (Rattus norvegicus, UniProt Q5XIH3); assay: High-throughput screen: ROS production from flavin binding site of complex I (IF); format: biochemical; conditions: percent change in ROS from DMSO controls; for inhibition at 2.5 µM: Table 7, read-out: IF
T1 construct: freshly isolated muscle mitochondria were assayed; from tissue; host or cells: rat skeletal muscle mitochondria (Wistar, Harlan Laboratories)
T1 sequence (Q5XIH3 21-464 limits assumed, one chain of several): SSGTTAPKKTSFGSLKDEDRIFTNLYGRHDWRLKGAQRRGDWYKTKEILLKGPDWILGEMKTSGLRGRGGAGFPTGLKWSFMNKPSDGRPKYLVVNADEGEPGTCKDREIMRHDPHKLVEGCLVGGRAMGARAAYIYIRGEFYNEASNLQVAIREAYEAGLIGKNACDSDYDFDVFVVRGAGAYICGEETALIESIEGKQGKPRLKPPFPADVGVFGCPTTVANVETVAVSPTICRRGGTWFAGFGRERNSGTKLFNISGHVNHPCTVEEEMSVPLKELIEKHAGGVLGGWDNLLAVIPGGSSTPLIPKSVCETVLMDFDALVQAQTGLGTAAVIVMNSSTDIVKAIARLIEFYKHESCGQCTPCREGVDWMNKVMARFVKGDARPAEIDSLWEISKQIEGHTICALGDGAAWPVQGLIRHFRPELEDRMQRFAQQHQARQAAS

[3] = target: T2, glycerol-3-phosphate dehydrogenase (GPDH) (Rattus norvegicus, UniProt P35571); assay: High-throughput screen: ROS production from glycerol-3-phosphate dehydrogenase (GPDH); format: biochemical; parameters: inhibition: dose or concentration left out as unconfirmed; conditions: for inhibition: Table 7; for inhibition / GPDH: percent change in ROS from DMSO controls; for inhibition at 2.5 µM: Table 6, 25 mM glycerol phosphate, rotenone, antimycin A, malonate, myxothiazol, compounds 2.5 μM, scaled to IQ positive controls, read-out: % Reduction in ROS Production (GPDH)
T2 construct: The activity of GPDH in intact mitochondria (0.3 mg/mL) was measured; from tissue; host or cells: rat skeletal muscle mitochondria (Wistar, Harlan Laboratories)
T2 sequence (P35571 43-727): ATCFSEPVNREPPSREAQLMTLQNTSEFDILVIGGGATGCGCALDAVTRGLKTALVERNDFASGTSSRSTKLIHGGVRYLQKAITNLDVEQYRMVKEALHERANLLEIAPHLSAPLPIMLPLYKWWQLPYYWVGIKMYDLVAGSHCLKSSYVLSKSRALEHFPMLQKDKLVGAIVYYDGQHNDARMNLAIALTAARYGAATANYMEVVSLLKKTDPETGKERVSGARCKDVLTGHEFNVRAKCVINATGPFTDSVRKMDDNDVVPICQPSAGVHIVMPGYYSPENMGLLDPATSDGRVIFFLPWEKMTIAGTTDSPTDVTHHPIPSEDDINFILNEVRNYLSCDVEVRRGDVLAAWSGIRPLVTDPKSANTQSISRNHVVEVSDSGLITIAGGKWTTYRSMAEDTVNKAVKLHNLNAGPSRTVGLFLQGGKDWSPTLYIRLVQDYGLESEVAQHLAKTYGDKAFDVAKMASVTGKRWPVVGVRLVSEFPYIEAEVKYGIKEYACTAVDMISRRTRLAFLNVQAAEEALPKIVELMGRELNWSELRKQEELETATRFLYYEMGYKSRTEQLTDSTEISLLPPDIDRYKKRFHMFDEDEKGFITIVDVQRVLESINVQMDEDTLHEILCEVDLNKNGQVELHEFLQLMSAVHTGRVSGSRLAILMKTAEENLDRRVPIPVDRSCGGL

[4] = target: T3, outer ubiquinone binding site of complex III (IIIQO) (Rattus norvegicus, UniProt P00159+P20788); assay: High-throughput screen: ROS production from outer ubiquinone binding site of complex III (IIIQO); format: biochemical; conditions: for IIIQO: Table 8
T3 construct: freshly isolated muscle mitochondria were assayed; from tissue; host or cells: rat skeletal muscle mitochondria (Wistar, Harlan Laboratories)

[5] = tested on: ubiquinone binding site of complex I (IQ); assay: High-throughput screen: ROS production from ubiquinone binding site of complex I (IQ), isolated skeletal muscle mitochondria; format: biochemical, rat; conditions: percent change in ROS from DMSO controls
[6] = target: T4, succinate dehydrogenase/complex II (SDH) (Rattus norvegicus, UniProt P21913+Q641Z9+Q6PCT8+Q920L2); assay: High-throughput screen: ROS production from succinate dehydrogenase/complex II (SDH); format: biochemical; conditions: for inhibition at 2.5 µM: Table 7; for inhibition at 2.5 µM / SDH: percent change in ROS from DMSO controls
T4 construct: freshly isolated muscle mitochondria were assayed; from tissue; host or cells: rat skeletal muscle mitochondria (Wistar, Harlan Laboratories)
T4 sequence (Q920L2 35-656): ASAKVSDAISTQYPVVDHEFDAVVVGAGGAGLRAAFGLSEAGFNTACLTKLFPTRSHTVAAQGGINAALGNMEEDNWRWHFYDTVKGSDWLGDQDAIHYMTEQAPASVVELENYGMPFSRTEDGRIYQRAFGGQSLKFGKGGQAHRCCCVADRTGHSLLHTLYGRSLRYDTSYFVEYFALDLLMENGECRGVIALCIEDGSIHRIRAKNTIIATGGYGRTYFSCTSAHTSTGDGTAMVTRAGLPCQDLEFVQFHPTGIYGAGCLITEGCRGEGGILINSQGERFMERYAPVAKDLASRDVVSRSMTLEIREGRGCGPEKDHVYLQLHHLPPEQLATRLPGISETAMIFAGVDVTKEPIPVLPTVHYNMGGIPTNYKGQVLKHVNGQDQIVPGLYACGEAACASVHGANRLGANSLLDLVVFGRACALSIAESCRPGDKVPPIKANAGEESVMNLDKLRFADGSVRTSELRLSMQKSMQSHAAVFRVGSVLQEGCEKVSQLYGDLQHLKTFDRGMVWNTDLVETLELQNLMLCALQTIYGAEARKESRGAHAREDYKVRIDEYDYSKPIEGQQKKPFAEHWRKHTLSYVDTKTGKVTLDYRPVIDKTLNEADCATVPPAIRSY
T4 sequence (P21913 31-282): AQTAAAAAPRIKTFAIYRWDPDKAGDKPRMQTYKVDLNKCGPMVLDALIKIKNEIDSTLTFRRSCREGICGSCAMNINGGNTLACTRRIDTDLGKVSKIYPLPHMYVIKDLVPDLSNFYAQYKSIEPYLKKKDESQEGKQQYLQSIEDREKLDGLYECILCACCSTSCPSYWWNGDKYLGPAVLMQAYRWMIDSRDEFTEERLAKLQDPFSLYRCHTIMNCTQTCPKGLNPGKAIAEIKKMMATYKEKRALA
T4 sequence (Q641Z9 30-169 limits assumed): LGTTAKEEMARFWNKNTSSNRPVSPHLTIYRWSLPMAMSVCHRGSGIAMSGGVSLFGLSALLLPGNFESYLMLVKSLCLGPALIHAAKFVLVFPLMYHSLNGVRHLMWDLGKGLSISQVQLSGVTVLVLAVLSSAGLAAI
T4 sequence (Q6PCT8 57-159): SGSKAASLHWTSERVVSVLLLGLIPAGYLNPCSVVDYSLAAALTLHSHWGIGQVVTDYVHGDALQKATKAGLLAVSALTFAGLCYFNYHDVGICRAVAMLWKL

[7] = Table 7, percent change in ROS from DMSO controls, read-out: IIIQO
[8] = percent change in ROS from DMSO controls
[9] = Table 9, percent change in ROS from DMSO controls, read-out: IIIQo
[10] = Table 4, 5 mM succinate, 4 μM rotenone, 2.5 μM antimycin A, compounds 2.5 μM, percent change from DMSO, read-out: % Reduction in ROS production (IIIQO)

inhibition [3]	GPDH ([3]; Table 8)	GPDH ([3]; Table 9)	inhibition at 2.5 µM [4, 7]	IIIQO [4, 8]	inhibition at 2.5 µM [4, 9]	inhibition at 2.5 µM [4, 10]	inhibition at 2.5 µM [6]	inhibition at 2.5 µM [3]	% Reduction in ROS Production (SDH) ([6]; Table 5, 15 μM palmitoyl carnitine, 2.5 μM antimycin A, 2 μM myxothiazol, compounds 2.5 μM, percent change from DMSO)	SDH ([6]; Table 8)	SDH ([6]; Table 9)	SMILES	ΔΨm ([1]; Table 8, glutamate)	ΔΨm ([1]; Table 9, glutamate)	inhibition at 2.5 µM [2]	IF ([2]; Table 8)	IF ([2]; Table 9)	IQ ([5]; Table 7)	IQ ([5]; Table 8)	IQ ([5]; Table 9)
-3.7%	3.7	3.7	31.3%	−31.3	31.3%	31.3%	–	–	–	–	–	CCCCN(Cc1ccccc1)Cc1cc(Cl)cc(Cl)c1O [Compound 38]	0.3	0.3	1.8%	−1.8	−1.8	−3.9	−3.9	−3.9
4.7%	−4.7	−4.7	26.8%	−26.8	26.8%	26.8%	–	–	–	–	–	Fc1ccc(N2CCN(CC(c3ccccc3)c3ccccc3)CC2)cc1 [Compound 39]	0.5	0.5	0.9%	−0.9	−0.9	2.7	2.7	2.7
-3.4%	3.4	3.4	23.2%	−23.2	23.2%	23.2%	–	–	–	–	–	COC(=O)c1ccc(CN(CCc2ccccc2)Cc2ccccc2)cc1 [Compound 43]	0.6	0.6	4.4%	−4.4	−4.4	−0.5	−0.5	−0.5
3.4%	−3.4	−3.4	23.1%	−23.1	23.1%	23.1%	–	–	–	–	–	CCCCN(Cc1ccccc1)Cc1cccc(Oc2ccc(Cl)cc2)c1 [Compound 44]	1.0	1.0	-3.1%	3.1	3.1	0.4	0.4	0.4
-3.1%	3.1	3.1	20.2%	−20.2	20.2%	20.2%	–	–	–	–	–	C=C(C)CN(CC)Cc1cc([N+](=O)[O-])ccc1Cl [Compound 45]	0.3	0.3	-0.5%	0.5	0.5	−0.2	−0.2	−0.2
-0.9%	–	–	-0.8%	–	–	–	0.3%	0%	–	–	–	COC(=O)CCC(=O)Nc1ccc(C)cc1 [Compound 53]	–	–	-1.3%	–	–	0.1	–	–
-3.3%	–	–	-2.5%	–	–	–	-4.4%	-0.9%	–	–	–	CCCCCCNC(=O)CCC(=O)O [Compound 54]	–	–	-8%	–	–	2.3	–	–
-1.5%	–	–	-3.3%	–	–	–	-1.5%	-3.3%	–	–	–	c1ccc2[nH]c(-c3ccc(-c4nc5ccccc5[nH]4)cc3)nc2c1 [Compound 55]	–	–	1.9%	–	–	−3.9	–	–
0.8%	–	–	-1.4%	–	–	–	2.9%	-1.5%	–	–	–	C=C(C)C(=O)Nc1ccc(-c2nc3ccccc3[nH]2)cc1 [Compound 56]	–	–	-0.3%	–	–	−0.3	–	–
-0.2%	–	–	-0.4%	–	–	–	-4.2%	0.8%	–	–	–	O=C(O)CCC(=O)Nc1ccc(-c2nc3cc(NC(=O)CCC(=O)O)ccc3[nH]2)cc1 [Compound 57]	–	–	-1.7%	–	–	3.1	–	–
1.2%	–	–	-0.8%	–	–	–	-1.5%	-0.2%	–	–	–	O=C(O)CCC(=O)Nc1ccc(Cl)cc1 [Compound 58]	–	–	-0.1%	–	–	−6.4	–	–
4.4%	–	–	1.3%	–	–	–	5.1%	1.2%	–	–	–	CC(=O)Nc1ccc(-c2nc3ccccc3[nH]2)cc1 [Compound 59]	–	–	3%	–	–	−12.3	–	–
48.3%	–	–	-1.1%	–	–	–	3.4%	4.4%	–	–	–	O=C(O)CCC(=O)Nc1cccc(-c2nc3ccccc3[nH]2)c1 [Compound 60]	–	–	4.2%	–	–	−43.9	–	–
-8.2%	–	–	-1.8%	–	–	–	-3.5%	1.7%	–	–	–	O=C(Nc1ccc(-c2nc3ccccc3[nH]2)cc1)c1ccco1 [Compound 63]	–	–	-0.9%	–	–	−6.9	–	–
13%	–	–	1%	–	–	–	-9.8%	-8.2%	–	–	–	CCOc1ccc(C(=O)Nc2ccc(-c3nc4ccccc4[nH]3)cc2)cc1 [Compound 64]	–	–	3.8%	–	–	−15.3	–	–
1.9%	–	–	1%	–	–	–	-0.2%	13%	–	–	–	O=C(O)CCC(=O)Nc1ccc(-c2nc3ccccc3s2)cc1 [Compound 65]	–	–	1.3%	–	–	−11.0	–	–
-1.8%	–	–	1.2%	–	–	–	2.5%	1.9%	–	–	–	O=C(Nc1ccc(-c2nc3ccccc3[nH]2)cc1)C1CC1 [Compound 66]	–	–	0.2%	–	–	−2.8	–	–
11.1%	–	–	6.5%	–	–	–	16.8%	-1.8%	–	–	–	Cc1ccc(NC(=O)CCC(=O)O)cc1 [Compound 67]	–	–	10.1%	–	–	−11.7	–	–
32.1%	–	–	-1.1%	–	–	–	3.7%	11.1%	–	–	–	CCCC(=O)Nc1ccc(-c2nc3cc4ccccc4cc3[nH]2)cc1 [Compound 68]	–	–	1.3%	–	–	−23.0	–	–
26%	–	–	-5.5%	–	–	–	6.3%	32.1%	–	–	–	O=C(O)CCC(=O)Nc1ccc(-c2nc3cc(C(=O)c4ccccc4)ccc3[nH]2)cc1 [Compound 69]	–	–	1.8%	–	–	−20.1	–	–
0%	–	–	0.4%	–	–	–	-4.6%	26%	–	–	–	Cc1ccc2[nH]c(-c3ccc(NC(=O)CCC(=O)O)cc3)nc2c1 [Compound 70]	–	–	2.2%	–	–	−0.2	–	–
0.6%	−0.6	−0.6	-6.3%	6.3	-6.3%	–	87.6%	–	−87.6%	−87.6	−87.6	CC1CC(C)(C)N(C=O)c2ccccc21 (stereo not drawn) [Compound 71]	–	–	-7%	7.0	7.0	1.6	1.6	1.6

SMILES	inhibition [3]	GPDH ([3]; Table 8)	GPDH ([3]; Table 9)	inhibition at 2.5 µM [4, 7]	IIIQO [4, 8]	inhibition at 2.5 µM [4, 9]	inhibition at 2.5 µM [4, 10]	inhibition at 2.5 µM [6]	inhibition at 2.5 µM [3]	% Reduction in ROS Production (SDH) ([6]; Table 5, 15 μM palmitoyl carnitine, 2.5 μM antimycin A, 2 μM myxothiazol, compounds 2.5 μM, percent change from DMSO)	SDH ([6]; Table 8)	SDH ([6]; Table 9)	ΔΨm ([1]; Table 8, glutamate)	ΔΨm ([1]; Table 9, glutamate)	inhibition at 2.5 µM [2]	IF ([2]; Table 8)	IF ([2]; Table 9)	IQ ([5]; Table 7)	IQ ([5]; Table 8)	IQ ([5]; Table 9)
COc1cccc(CCNC2C3CC4CC(C3)CC2C4)c1 (stereo not drawn) [Compound 26]	3.3%	−3.3	−3.3	1.8%	−1.8	1.8%	–	–	–	–	–	–	−0.7	−0.7	19.6%	−19.6	−19.6	−0.8	−0.8	−0.8
